In paper PMC4949196, “Binding interaction of a gamma-aminobutyric acid derivative with serum albumin: an insight by fluorescence and molecular modeling analysis” (SpringerPlus, 2016) one finds Kd data, which are given here for one compound.

Assay [1] addresses T1, bovine serum albumin (BSA) (Bos taurus, UniProt P02769).
T1 construct: gene ALB
Briefly: intrinsic tryptophan fluorescence quenching titration, Langmuir isotherm fit, room temperature, pH […]. It is filed as binding.

Assay [2] concerns the target T2, human serum albumin (HSA) (Homo sapiens, UniProt P02768).
T2 construct: gene ALB
Described as above. The class given is binding.

pKd: −log10 of the molar value.

T2 sequence (P02768 25-609): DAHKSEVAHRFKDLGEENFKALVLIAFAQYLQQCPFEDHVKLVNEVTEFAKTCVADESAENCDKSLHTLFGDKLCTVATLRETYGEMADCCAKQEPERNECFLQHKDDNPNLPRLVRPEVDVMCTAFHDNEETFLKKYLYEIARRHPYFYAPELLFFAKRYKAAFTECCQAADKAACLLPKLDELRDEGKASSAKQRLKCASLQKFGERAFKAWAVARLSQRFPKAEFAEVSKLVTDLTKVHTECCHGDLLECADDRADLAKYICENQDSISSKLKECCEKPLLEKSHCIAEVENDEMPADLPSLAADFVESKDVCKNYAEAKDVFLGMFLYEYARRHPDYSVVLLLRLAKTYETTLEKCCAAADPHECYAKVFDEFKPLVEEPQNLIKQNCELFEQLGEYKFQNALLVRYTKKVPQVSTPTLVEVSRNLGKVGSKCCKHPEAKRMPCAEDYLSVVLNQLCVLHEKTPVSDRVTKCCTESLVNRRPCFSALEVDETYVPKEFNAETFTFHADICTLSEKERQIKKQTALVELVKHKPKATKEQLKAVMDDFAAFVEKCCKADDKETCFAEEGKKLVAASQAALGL
T1 sequence (P02769 25-607): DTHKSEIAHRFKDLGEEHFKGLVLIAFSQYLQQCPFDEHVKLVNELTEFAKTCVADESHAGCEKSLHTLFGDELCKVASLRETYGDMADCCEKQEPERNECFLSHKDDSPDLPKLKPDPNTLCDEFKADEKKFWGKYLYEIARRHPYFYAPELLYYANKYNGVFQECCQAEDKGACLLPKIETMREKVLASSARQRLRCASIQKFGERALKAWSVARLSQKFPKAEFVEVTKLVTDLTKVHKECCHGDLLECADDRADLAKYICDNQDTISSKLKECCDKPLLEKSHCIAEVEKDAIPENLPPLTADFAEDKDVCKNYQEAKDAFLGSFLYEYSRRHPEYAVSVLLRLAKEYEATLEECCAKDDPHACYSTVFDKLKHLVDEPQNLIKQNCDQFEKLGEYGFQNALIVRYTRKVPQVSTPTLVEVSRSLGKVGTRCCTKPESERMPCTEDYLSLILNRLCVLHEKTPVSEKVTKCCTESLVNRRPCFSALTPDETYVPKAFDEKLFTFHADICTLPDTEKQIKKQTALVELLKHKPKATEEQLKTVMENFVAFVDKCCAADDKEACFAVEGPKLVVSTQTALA

By pKd is commonly meant the Kd on a negative log10 scale, so that one unit is a factor of ten. For `COC(=O)CCCNC(=O)c1ccc(N(CC(=O)OC(C)(C)C)c2ccc(OC)cc2)cc1` [compound 5, methyl 4-(4-((2-(tert-butoxy)-2-oxoethyl)(4-methoxyphenyl)amino)benzamido)butanoate], the figures for the pKd in assay [1] and in assay [2] were 5.41 and 5.56, respectively.
